ChEMBL document CHEMBL3044558, “Structure-activity relationship development of dihaloaryl triazole compounds as insecticides and acaricides. 1. Phenyl thiophen-2-yl triazoles” (2007)
Activity calls are given as the source filed them. The rule behind the calls is not given here.

Columns and labels:
Tetranychus urticae [1] = tested on: Tetranychus urticae
Aphis gossypii [2] = tested on: Aphis gossypii
Spodoptera exigua = assay: Insecticidal activity against Spodoptera exigua second-instar larvae feeded on 400 ppm compound treated lepidopteran diet assessed as insect mortality measured 5 days post compound treatment under green house conditions; assay type: functional; conditions: at 400 ppm
Heliothis virescens [3] = assay: Insecticidal activity against Heliothis virescens (tobacco budworm) second-instar larvae infested on 400 ppm compound pre-treated cotton cotyledon disk assessed as insect mortality measured 5 days post compound treatment under green house conditions; assay type: functional
Trichoplusia ni [4] = tested on: Trichoplusia ni
Bemisia tabaci [5] = tested on: Bemisia tabaci
Bemisia tabaci [6] = assay: Insecticidal activity against Bemisia tabaci (sweet potato whitefly) second-instar larvae infested five weeks old cotton plants followed by compound 250 ppm compound spraying after insect oviposit assessed as insect mortality measured 13 days post compound treatment under green house conditions; assay type: functional
Trichoplusia ni [7] = assay: Insecticidal activity against Trichoplusia ni (cabbage looper) second-instar larvae infested on 400 ppm compound pre-treated cabbage leaf disk assessed as insect mortality measured 5 days post compound treatment under green house conditions; assay type: functional; conditions: at 400 ppm
Heliothis virescens [8] = tested on: Heliothis virescens
Tetranychus urticae [9] = assay: Insecticidal activity against female Tetranychus urticae (two-spotted spider mite) infested cotton leaf disks followed by 2.5 ppm compound spraying after oviposit assessed as insect mortality measured after 6 days post compound application under green house conditions; assay type: functional; conditions: foliar, 144 h
Aphis gossypii [10] = assay: Insecticidal activity against Aphis gossypii (cotton aphid) infested one week old Crookneck squash plants assessed as insect mortality at 50 ppm measured after 3 days post compound application under green house conditions; assay type: functional; conditions: 72 h

SMILES | mortality (Tetranychus urticae [1]) | mortality (Aphis gossypii [2]) | mortality (Spodoptera exigua) | mortality (Heliothis virescens [3]) | mortality (Trichoplusia ni [4]) | mortality (Bemisia tabaci [5]) | mortality (Bemisia tabaci [6]) | mortality (Trichoplusia ni [7]) | mortality (Heliothis virescens [8]) | mortality at 2.5 ppm (Tetranychus urticae [9]) | mortality at 50 ppm (Aphis gossypii [10])
Cc1cc(-c2cc(Br)cc(Br)c2)sc1-c1nc(-c2c(F)cccc2Cl)nn1C | inactive | inactive | 60% | <50% | inactive | inactive |  |  |  |  | 
CCOc1ccc(-c2ccc(-c3nc(-c4c(F)cccc4Cl)nn3C)s2)cc1 | inactive | inactive | 80% |  |  |  | <50% | 90% | inactive |  | 
Cn1nc(-c2c(F)cccc2F)nc1-c1cc(-c2ccccc2)c(C(F)(F)F)s1 | inactive | inactive | 50% |  | inactive |  |  |  | inactive |  | 
Cc1c(-c2ccc(OC(F)(F)C(F)Br)cc2)sc(-c2nc(-c3c(F)cccc3Cl)nn2C)c1C (stereo not given) |  |  | 70% | 90% | inactive |  | 80% |  |  | 90% | < 50%
Cc1cc(-c2cccc(OC(F)(F)F)c2)sc1-c1nc(-c2c(F)cccc2Cl)nn1C | inactive | inactive | 80% | 90% |  |  | <50% | 90% |  |  | 
Cn1nc(-c2c(F)cccc2Cl)nc1-c1sc(-c2ccc(C(F)(F)F)cc2)c(Br)c1Cl |  |  | 90% | 90% | inactive | inactive |  |  |  | 90% | < 50%
COCCOc1cccc(-c2cc(C)c(-c3nc(-c4c(F)cccc4Cl)nn3C)s2)c1 |  |  | 80% |  |  | inactive |  | 70% | inactive | < 50% | < 50%
Cc1sc(-c2nc(-c3c(F)cccc3Cl)nn2C)c(C)c1-c1ccc(C(C)C)cc1 |  |  | 80% | 80% | inactive | inactive |  |  |  | 90% | < 50%
Cc1c(-c2nc(-c3c(F)cccc3Cl)nn2C)sc(Br)c1-c1ccc(OC(F)(F)F)cc1 |  | inactive | 90% |  | inactive | inactive |  |  | inactive | 50% | 
Cc1c(-c2ccc(O)cc2)csc1-c1nc(-c2c(F)cccc2Cl)nn1C | inactive | inactive | <50% | <50% | inactive | inactive |  |  |  |  | 
Cc1c(-c2nc(-c3c(F)cccc3Cl)nn2C)sc(-c2ccc(OC(F)(F)F)cc2)c1Br |  | inactive | 90% |  |  | inactive |  | 90% | inactive | 90% | 
Cc1cc(C2CCC(OC(=O)C(F)(F)Br)CC2)sc1-c1nc(-c2c(F)cccc2Cl)nn1C (stereo not given) | inactive | inactive | <50% |  | inactive |  |  |  | inactive |  | 
Cn1nc(-c2c(F)cccc2Cl)nc1-c1ccc(-c2ccc(F)cc2)s1 | inactive | inactive | <50% |  |  |  | <50% | 80% | inactive |  | 
Cc1cc(-c2ccncc2)sc1-c1nc(-c2c(F)cccc2Cl)nn1C | inactive | inactive | 70% | <50% |  | inactive |  | 90% |  |  | 
COc1ccc(-c2csc(-c3nc(-c4c(F)cccc4F)nn3C)c2)cc1 | inactive | inactive | 50% |  |  |  | 60% | 80% | inactive |  | 
Cn1nc(-c2c(F)cccc2Cl)nc1-c1cc(Br)c(-c2cccc(OC(F)(F)F)c2)s1 | inactive | inactive | <50% |  | inactive |  | <50% |  | inactive |  | 
Cn1nc(-c2c(F)cccc2Cl)nc1-c1ccc(-c2cccc(OC(F)(F)F)c2)s1 | inactive | inactive | <50% |  |  | inactive |  | 80% | inactive |  | 
COc1ccc(-c2ccc(-c3nc(-c4c(F)cccc4F)nn3C)s2)cc1 | inactive | inactive | 90% |  |  | inactive |  | <50% | inactive |  | 

SMILES | mortality (Tetranychus urticae [1]) | mortality (Aphis gossypii [2]) | mortality (Spodoptera exigua) | mortality (Heliothis virescens [3]) | mortality (Trichoplusia ni [4]) | mortality (Bemisia tabaci [5]) | mortality (Bemisia tabaci [6]) | mortality (Trichoplusia ni [7]) | mortality (Heliothis virescens [8]) | mortality at 2.5 ppm (Tetranychus urticae [9]) | mortality at 50 ppm (Aphis gossypii [10])
Cc1cc(C2=CCC(OC(F)(F)C(F)Cl)CC2)sc1-c1nc(-c2c(F)cccc2Cl)nn1C (stereo not given) |  |  | 70% | 90% | inactive |  | 50% |  |  | 90% | 90%
Cc1cc(C2(O)CCC(=O)CC2)sc1-c1nc(-c2c(F)cccc2Cl)nn1C | inactive | inactive | <50% | <50% |  | inactive |  | <50% |  |  | 
Cc1c(-c2ccc(OC(F)(F)C(F)Br)cc2)csc1-c1nc(-c2c(F)cccc2Cl)nn1C (stereo not given) |  |  | 90% | 90% | inactive |  | 90% |  |  | 90% | 80%
Cc1c(-c2nc(-c3c(F)cccc3Cl)nn2C)sc(Cl)c1-c1ccc(OC(F)(F)F)cc1 |  | inactive | 90% |  | inactive |  | <50% |  | inactive | 90% | 
Cc1cc(-c2ccc(Cl)c(Cl)c2)sc1-c1nc(-c2c(F)cccc2Cl)nn1C | inactive | inactive | 70% |  |  | inactive |  | 60% | inactive |  | 
Cn1nc(-c2c(F)cccc2Cl)nc1-c1cc(-c2ccc(Cl)cc2)c(Cl)s1 | inactive | inactive | 50% |  |  |  |  |  | inactive |  | 
Cc1sc(-c2nc(-c3c(F)cccc3Cl)nn2C)c(C)c1-c1ccc(C(F)(F)F)cc1 |  |  | 90% | 60% | inactive |  | 60% |  |  | 90% | < 50%
CCOc1ccc(-c2c(C)sc(-c3nc(-c4c(F)cccc4Cl)nn3C)c2C)cc1 |  |  | 80% | 70% | inactive |  | <50% |  |  | < 50% | < 50%
Cn1nc(-c2c(F)cccc2Cl)nc1-c1sc(-c2ccc(Br)cc2)c(Cl)c1Cl |  | inactive | 70% | 90% | inactive |  | 50% |  |  | 90% | 
Cn1nc(-c2c(F)cccc2Cl)nc1-c1sc(-c2ccc(C(C)(C)C)cc2)c(Cl)c1Cl |  |  | 50% | <50% | inactive |  | <50% |  |  | 60% | 80%
Cn1nc(-c2c(F)cccc2Cl)nc1-c1sc(-c2ccc(OC(F)(F)F)cc2)c(Cl)c1Cl | inactive | inactive | 70% | 60% |  |  | 70% | 90% |  |  | 
CCOc1ccc(-c2cc(C)c(-c3nc(-c4c(F)cccc4Cl)nn3C)s2)cc1 |  | inactive | 80% | 60% | inactive |  | <50% |  |  | 90% | 
Cc1ccc(-c2cc(Cl)c(-c3nc(-c4c(F)cccc4Cl)nn3C)s2)cc1 |  | inactive | <50% | 60% | inactive | inactive |  |  |  | 90% | 
Cc1cc(C2=CCC(OC(F)(F)C(F)Br)CC2)sc1-c1nc(-c2c(F)cccc2Cl)nn1C (stereo not given) | inactive |  | <50% |  | inactive |  |  |  | inactive |  | < 50%
Cc1c(-c2ccc(C(F)(F)F)cc2)csc1-c1nc(-c2c(F)cccc2Cl)nn1C |  |  | 60% |  |  |  | <50% | 90% | inactive | 60% | 60%
Cc1ccc(-c2sc(-c3nc(-c4c(F)cccc4Cl)nn3C)c(Cl)c2Cl)cc1 |  | inactive | 70% | 50% | inactive |  | 70% |  |  | 90% | 
Cc1cc(Oc2ncc(C(F)(F)F)cc2Cl)sc1-c1nc(-c2c(F)cccc2Cl)nn1C |  |  | 70% | 90% | inactive |  | 90% |  |  | 90% | 90%
